Reference: US20190231705A1, “HIGH DRUG LOAD POLYMERIC NANOPARTICLE FORMULATIONS AND METHODS OF MAKING AND USING SAME” (Merck Sharp & Dohme Corp., priority 2018, published 2019)

Assay: Solution content after 80K centrifugation
Format: physicochemical
Settings: grazoprevir/HPMCAS-L nanoparticle suspension after 80k centrifugation

SMILES: C=C[C@@H]1C[C@]1(NC(=O)[C@@H]1C[C@@H]2CN1C(=O)[C@H](C(C)(C)C)NC(=O)O[C@@H]1C[C@H]1CCCCCc1nc3ccc(OC)cc3nc1O2)C(=O)NS(=O)(=O)C1CC1 [grazoprevir, (1aR,5S,8S, 10R,22aR)-N-[(1R,2S)-1-[(cyclopropylsulfonamido)-carbonyl]-2-ethenylcyclopropyl]-14-methoxy-5-(2-methylpropan-2-yl)-3,6-dioxo-1,1a,3,4,5,6,9,10,18,-19,20,21,22,22a-tetradecahydro-8H-7,10-methanocyclopropa[18,19][1,10,3,6]dioxadiaza-cyclononadecino[11,12-b]quinoxaline-8-carboxamide]
- % Grazoprevir in solution: 4.2%
